Assay results published in publication PMC12029836, “Phytotoxicity, Cytotoxicity, and Antimicrobial Activity of Triethanolammonium Amino Acids Salts” (Molecules, 2025).
Read-outs that look alike come from different tables or passages of the source.

How the values were obtained:
[1] = tested on: Lepidium sativum L. roots; conditions: 24 h incubation, mean(±SD), n = 3
[2] = tested on: Lepidium sativum L. seeds; conditions: 24 h incubation, mean(±SD), n = 3
[3] = 0.01% (w/w) compound in the medium
[4] = 0.03% (w/w) compound in the medium
[5] = 0.05% (w/w) compound in the medium
[6] = 0.10% (w/w) compound in the medium
[7] = 0.30% (w/w) compound in the medium
[8] = 0.50% (w/w) compound in the medium
[9] = 1.00% (w/w) compound in the medium
[10] = 2.00% (w/w) compound in the medium
[11] = 3.00% (w/w) compound in the medium
[12] = 4.00% (w/w) compound in the medium
[13] = 5.00% (w/w) compound in the medium

N[C@@H](CC(=O)O)C(=O)O.OCCN(CCO)CCO.OCCN(CCO)CCO [[TEA]2[Asp]]
Inhibition of the root growth in pregerminated Lepidium sativum seeds (IRG, %) [1, 3]: 7.7(±1.9) % | Inhibition of the root growth in pregerminated Lepidium sativum seeds (IRG, %) [1, 4]: 8.6(±2.1) % | Inhibition of the root growth in pregerminated Lepidium sativum seeds (IRG, %) [1, 5]: 11.6(±1.9) % | Inhibition of the root growth in pregerminated Lepidium sativum seeds (IRG, %) [1, 6]: 29.6(±2.0) % | Inhibition of the root growth in pregerminated Lepidium sativum seeds (IRG, %) [1, 7]: 32.6(±1.5) % | Inhibition of the root growth in pregerminated Lepidium sativum seeds (IRG, %) [1, 8]: 36.6(±1.6) % | Inhibition of the root growth in pregerminated Lepidium sativum seeds (IRG, %) [1, 9]: 40.7(±1.2) % | Inhibition of the root growth in pregerminated Lepidium sativum seeds (IRG, %) [1, 10]: 65.4(±0.7) % | Inhibition of the root growth in pregerminated Lepidium sativum seeds (IRG, %) [1, 11]: 76.7(±0.7) % | Inhibition of the root growth in pregerminated Lepidium sativum seeds (IRG, %) [1, 12]: 82.2(±0.6) % | Inhibition of the root growth in pregerminated Lepidium sativum seeds (IRG, %) [1, 13]: 86.2(±0.5) % | Inhibition of the Lepidium sativum seeds germination (ISG, %) [2, 3]: 1.8(±0.1) % | Inhibition of the Lepidium sativum seeds germination (ISG, %) [2, 4]: 3.6(±1.3) % | Inhibition of the Lepidium sativum seeds germination (ISG, %) [2, 5]: 7.3(±0.8) % | Inhibition of the Lepidium sativum seeds germination (ISG, %) [2, 6]: 9.1(±0.5) % | Inhibition of the Lepidium sativum seeds germination (ISG, %) [2, 7]: 12.7(±0.8) % | Inhibition of the Lepidium sativum seeds germination (ISG, %) [2, 8]: 16.4(±1.3) % | Inhibition of the Lepidium sativum seeds germination (ISG, %) [2, 9]: 18.2(±0.8) % | Inhibition of the Lepidium sativum seeds germination (ISG, %) [2, 10]: 19.1(±1.3) % | Inhibition of the Lepidium sativum seeds germination (ISG, %) [2, 11]: 20.0(±0.5) % | Inhibition of the Lepidium sativum seeds germination (ISG, %) [2, 12]: 30.9(±0.9) % | Inhibition of the Lepidium sativum seeds germination (ISG, %) [2, 13]: 50.9(±0.8) %

NC(CCC(=O)O)C(=O)O.OCCN(CCO)CCO.OCCN(CCO)CCO (centres unmarked) [[TEA]2[Glu]]
Inhibition of the root growth in pregerminated Lepidium sativum seeds (IRG, %) [1, 3]: 10.0(±2.9% | Inhibition of the root growth in pregerminated Lepidium sativum seeds (IRG, %) [1, 4]: 18.1(±2.7) % | Inhibition of the root growth in pregerminated Lepidium sativum seeds (IRG, %) [1, 5]: 21.3(±2.7) % | Inhibition of the root growth in pregerminated Lepidium sativum seeds (IRG, %) [1, 8]: 44.4(±2.2) % | Inhibition of the root growth in pregerminated Lepidium sativum seeds (IRG, %) [1, 9]: 51.5(±2.1) % | Inhibition of the root growth in pregerminated Lepidium sativum seeds (IRG, %) [1, 10]: 68.2(±1.3) % | Inhibition of the root growth in pregerminated Lepidium sativum seeds (IRG, %) [1, 11]: 78.5(±0.6) % | Inhibition of the root growth in pregerminated Lepidium sativum seeds (IRG, %) [1, 12]: 87.0(±0.4) % | Inhibition of the root growth in pregerminated Lepidium sativum seeds (IRG, %) [1, 13]: 90.5(±0.7) % | Inhibition of the Lepidium sativum seeds germination (ISG, %) [2, 3]: 0.0(±0.0) % | Inhibition of the Lepidium sativum seeds germination (ISG, %) [2, 4]: 0.0(±0.0) % | Inhibition of the Lepidium sativum seeds germination (ISG, %) [2, 5]: 0.0(±0.0) % | Inhibition of the Lepidium sativum seeds germination (ISG, %) [2, 6]: 3.7(±0.9) % | Inhibition of the Lepidium sativum seeds germination (ISG, %) [2, 7]: 5.6(±0.9) % | Inhibition of the Lepidium sativum seeds germination (ISG, %) [2, 8]: 7.4(±0.9) % | Inhibition of the Lepidium sativum seeds germination (ISG, %) [2, 9]: 14.8(±2.5) % | Inhibition of the Lepidium sativum seeds germination (ISG, %) [2, 10]: 22.2(±2.2) % | Inhibition of the Lepidium sativum seeds germination (ISG, %) [2, 11]: 29.6(±1.7) % | Inhibition of the Lepidium sativum seeds germination (ISG, %) [2, 12]: 37.0(±0.5) % | Inhibition of the Lepidium sativum seeds germination (ISG, %) [2, 13]: 63.0(±0.5) %

NC(=O)C[C@H](N)C(=O)O.OCCN(CCO)CCO [[TEA][Asn]]
Inhibition of the root growth in pregerminated Lepidium sativum seeds (IRG, %) [1, 3]: 4.5(±1.6) % | Inhibition of the root growth in pregerminated Lepidium sativum seeds (IRG, %) [1, 4]: 11.6(±1.6) % | Inhibition of the root growth in pregerminated Lepidium sativum seeds (IRG, %) [1, 5]: 16.0(±1.6) % | Inhibition of the root growth in pregerminated Lepidium sativum seeds (IRG, %) [1, 6]: 32.5(±1.7) % | Inhibition of the root growth in pregerminated Lepidium sativum seeds (IRG, %) [1, 7]: 34.9% | Inhibition of the root growth in pregerminated Lepidium sativum seeds (IRG, %) [1, 8]: 42.7(±1.5) % | Inhibition of the root growth in pregerminated Lepidium sativum seeds (IRG, %) [1, 9]: 58.9(±1.1) % | Inhibition of the root growth in pregerminated Lepidium sativum seeds (IRG, %) [1, 10]: 76.9(±1.0) % | Inhibition of the root growth in pregerminated Lepidium sativum seeds (IRG, %) [1, 11]: 81.5(±0.9) % | Inhibition of the root growth in pregerminated Lepidium sativum seeds (IRG, %) [1, 12]: 85(±0.8) % | Inhibition of the root growth in pregerminated Lepidium sativum seeds (IRG, %) [1, 13]: 88.2(±0.7) % | Inhibition of the Lepidium sativum seeds germination (ISG, %) [2, 3]: 5.6(±2.9) % | Inhibition of the Lepidium sativum seeds germination (ISG, %) [2, 4]: 6.5(±1.3) % | Inhibition of the Lepidium sativum seeds germination (ISG, %) [2, 5]: 7.4(±0.5) % | Inhibition of the Lepidium sativum seeds germination (ISG, %) [2, 6]: 9.3(±1.3) % | Inhibition of the Lepidium sativum seeds germination (ISG, %) [2, 7]: 12.0(±0.9) % | Inhibition of the Lepidium sativum seeds germination (ISG, %) [2, 8]: 14.8(±2.4) % | Inhibition of the Lepidium sativum seeds germination (ISG, %) [2, 9]: 20.4(±2.6) % | Inhibition of the Lepidium sativum seeds germination (ISG, %) [2, 10]: 33.3(±2.9) % | Inhibition of the Lepidium sativum seeds germination (ISG, %) [2, 11]: 46.3(±0.9) % | Inhibition of the Lepidium sativum seeds germination (ISG, %) [2, 12]: 67.6(±2.9) % | Inhibition of the Lepidium sativum seeds germination (ISG, %) [2, 13]: 88.9(±1.4) %

NC(=O)CCC(N)C(=O)O.OCCN(CCO)CCO (centres unmarked) [[TEA][Gln]]
Inhibition of the root growth in pregerminated Lepidium sativum seeds (IRG, %) [1, 3]: 13.0(±2.0) % | Inhibition of the root growth in pregerminated Lepidium sativum seeds (IRG, %) [1, 4]: 20.7(±1.8) % | Inhibition of the root growth in pregerminated Lepidium sativum seeds (IRG, %) [1, 5]: 21.0(±2.2) % | Inhibition of the root growth in pregerminated Lepidium sativum seeds (IRG, %) [1, 6]: 26.9(±1.8) % | Inhibition of the root growth in pregerminated Lepidium sativum seeds (IRG, %) [1, 7]: 50.5% | Inhibition of the root growth in pregerminated Lepidium sativum seeds (IRG, %) [1, 8]: 63.6(±1.3) % | Inhibition of the root growth in pregerminated Lepidium sativum seeds (IRG, %) [1, 9]: 72.9(±0.9) % | Inhibition of the root growth in pregerminated Lepidium sativum seeds (IRG, %) [1, 10]: 78.1(±1.0) % | Inhibition of the root growth in pregerminated Lepidium sativum seeds (IRG, %) [1, 11]: 85.2(±0.9) % | Inhibition of the root growth in pregerminated Lepidium sativum seeds (IRG, %) [1, 12]: 92.4(±0.5) % | Inhibition of the root growth in pregerminated Lepidium sativum seeds (IRG, %) [1, 13]: 93.6(±0.5) % | Inhibition of the Lepidium sativum seeds germination (ISG, %) [2, 3]: 0.0(±0.0) % | Inhibition of the Lepidium sativum seeds germination (ISG, %) [2, 4]: 0.0(±0.0) % | Inhibition of the Lepidium sativum seeds germination (ISG, %) [2, 5]: 0.0(±0.0) % | Inhibition of the Lepidium sativum seeds germination (ISG, %) [2, 6]: 1.7(±2.2) % | Inhibition of the Lepidium sativum seeds germination (ISG, %) [2, 7]: 9.2(±1.3) % | Inhibition of the Lepidium sativum seeds germination (ISG, %) [2, 8]: 15.0(±0.5) % | Inhibition of the Lepidium sativum seeds germination (ISG, %) [2, 9]: 20.8(±2.6) % | Inhibition of the Lepidium sativum seeds germination (ISG, %) [2, 10]: 38.1(±2.1) % | Inhibition of the Lepidium sativum seeds germination (ISG, %) [2, 11]: 53.8(±2.5) % | Inhibition of the Lepidium sativum seeds germination (ISG, %) [2, 12]: 86.7(±1.3) %

NCC(=O)O.OCCN(CCO)CCO [[TEA][Gly]]
Inhibition of the root growth in pregerminated Lepidium sativum seeds (IRG, %) [1, 3]: 8.7% | Inhibition of the root growth in pregerminated Lepidium sativum seeds (IRG, %) [1, 4]: 16.2(±1.8) % | Inhibition of the root growth in pregerminated Lepidium sativum seeds (IRG, %) [1, 5]: 20.9(±2.0) % | Inhibition of the root growth in pregerminated Lepidium sativum seeds (IRG, %) [1, 6]: 20.6(±1.7) % | Inhibition of the root growth in pregerminated Lepidium sativum seeds (IRG, %) [1, 7]: 49.3(±1.3) % | Inhibition of the root growth in pregerminated Lepidium sativum seeds (IRG, %) [1, 8]: 62.3(±1.3) % | Inhibition of the root growth in pregerminated Lepidium sativum seeds (IRG, %) [1, 9]: 75.7(±0.7) % | Inhibition of the root growth in pregerminated Lepidium sativum seeds (IRG, %) [1, 10]: 80.6(±0.6) % | Inhibition of the root growth in pregerminated Lepidium sativum seeds (IRG, %) [1, 11]: 93.3(±0.5) % | Inhibition of the root growth in pregerminated Lepidium sativum seeds (IRG, %) [1, 12]: 96.2(±0.4) % | Inhibition of the root growth in pregerminated Lepidium sativum seeds (IRG, %) [1, 13]: 95.9(±0.4) % | Inhibition of the Lepidium sativum seeds germination (ISG, %) [2, 3]: 0.0(±0.5) % | Inhibition of the Lepidium sativum seeds germination (ISG, %) [2, 4]: 0.0(±0.5) % | Inhibition of the Lepidium sativum seeds germination (ISG, %) [2, 5]: 1.7 (±1.2) % | Inhibition of the Lepidium sativum seeds germination (ISG, %) [2, 6]: 3.4 (±1.3) % | Inhibition of the Lepidium sativum seeds germination (ISG, %) [2, 7]: 6.9 (±0.8) % | Inhibition of the Lepidium sativum seeds germination (ISG, %) [2, 8]: 13.8(±2.6) % | Inhibition of the Lepidium sativum seeds germination (ISG, %) [2, 9]: 20.7(±3.1) % | Inhibition of the Lepidium sativum seeds germination (ISG, %) [2, 11]: 63.8% | Inhibition of the Lepidium sativum seeds germination (ISG, %) [2, 12]: 81.0(±1.7) % | Inhibition of the Lepidium sativum seeds germination (ISG, %) [2, 13]: 87.9(±0.9) %

CCC(C)C(N)C(=O)O.OCCN(CCO)CCO [[TEA][Ile]]
Inhibition of the root growth in pregerminated Lepidium sativum seeds (IRG, %) [1, 3]: 2.9(±1.7) % | Inhibition of the root growth in pregerminated Lepidium sativum seeds (IRG, %) [1, 4]: 27.8(±1.4) % | Inhibition of the root growth in pregerminated Lepidium sativum seeds (IRG, %) [1, 5]: 31.4(±1.9) % | Inhibition of the root growth in pregerminated Lepidium sativum seeds (IRG, %) [1, 6]: 35.1(±1.5) % | Inhibition of the root growth in pregerminated Lepidium sativum seeds (IRG, %) [1, 7]: 34.6(±1.6) % | Inhibition of the root growth in pregerminated Lepidium sativum seeds (IRG, %) [1, 8]: 36.9(±1.6) % | Inhibition of the root growth in pregerminated Lepidium sativum seeds (IRG, %) [1, 9]: 56.9(±1.2) % | Inhibition of the root growth in pregerminated Lepidium sativum seeds (IRG, %) [1, 10]: 70.9(±1.0) % | Inhibition of the root growth in pregerminated Lepidium sativum seeds (IRG, %) [1, 11]: 72.5(±0.7) % | Inhibition of the root growth in pregerminated Lepidium sativum seeds (IRG, %) [1, 12]: 77.5(±0.6) % | Inhibition of the root growth in pregerminated Lepidium sativum seeds (IRG, %) [1, 13]: 80.4(±0.3) % | Inhibition of the Lepidium sativum seeds germination (ISG, %) [2, 3]: 0.0(±1.9) % | Inhibition of the Lepidium sativum seeds germination (ISG, %) [2, 4]: 0.0(±1.4) % | Inhibition of the Lepidium sativum seeds germination (ISG, %) [2, 5]: 0.0(±0.8) % | Inhibition of the Lepidium sativum seeds germination (ISG, %) [2, 6]: 0.0(±0.5) % | Inhibition of the Lepidium sativum seeds germination (ISG, %) [2, 7]: 3.6(±2.2) % | Inhibition of the Lepidium sativum seeds germination (ISG, %) [2, 8]: 5.4(±0.5) % | Inhibition of the Lepidium sativum seeds germination (ISG, %) [2, 9]: 17.9(±2.6) % | Inhibition of the Lepidium sativum seeds germination (ISG, %) [2, 10]: 23.2(±0.9) % | Inhibition of the Lepidium sativum seeds germination (ISG, %) [2, 11]: 26.8(±0,9) % | Inhibition of the Lepidium sativum seeds germination (ISG, %) [2, 12]: 39.3(±2.1) % | Inhibition of the Lepidium sativum seeds germination (ISG, %) [2, 13]: 80.4(±1.3) %
